From PubChem BioAssay (NCI)
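A five-concentration, 48-hour dose response in 96-well plates underlies each endpoint, interpolated linearly between surrounding concentrations. GI50 = concentration required for 50% inhibition of growth. TGI is the concentration that stops growth completely.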 Where a SMILES comes first, the peptide text is derived from it. [ ]: non-standard residue; d: D form. ξ: configuration not given here. ξLac(3-iPr) = CC(C)CC(O)C(=O)O; NMeV = CN[CH](C(=O)O)C(C)C; NMeA = CN[CH](C)C(=O)O; βAla = NCCC(=O)O

Tests used:
Assay in all cases: NCI anticancer screen, dose series, 48 h
[1] = test system: NCI-H522 lung
[2] = test system: MCF7 breast
[3] = test system: NCI-H460 lung
[4] = test system: HS 578T breast
[5] = test system: TK-10 renal
[6] = test system: LOX IMVI melanoma
[7] = test system: SK-MEL-2 melanoma
[8] = test system: A549 NSCLC
[9] = test system: ACHN renal
[10] = test system: KM12 colon
[11] = test system: HCC-2998 colon
[12] = test system: UACC-257 melanoma

SMILES | TGI [1] [µM] | TGI [2] [µM] | TGI [3] [µM] | TGI [4] [µM] | TGI [5] [µM] | TGI [6] [µM] | TGI [7] [µM] | TGI [8] [µM] | TGI [9] [µM] | TGI [10] [µM] | TGI [11] [µM] | TGI [12] [µM] | GI50 [2] [µM] | GI50 [5] [µM] | GI50 [6] [µM] | GI50 [7] [µM] | GI50 [8] [µM] | GI50 [9] [µM] | GI50 [10] [µM]
CO/N=C\c1cc(O)c(O)c(/C=N/OC)c1 | > 100 | 94.8 | > 100 | 71.1 | > 100 | > 100 | > 100 | > 100 | > 100 | > 100 | > 100 | > 100 |  |  |  |  |  |  | 
O=C1C=CC(=O)c2c(O)c(Br)c(Br)c(O)c21 |  | 5.48 | 34.1 | 69.1 | 6.12 |  | 46.6 | 41.5 | 5.99 | 16.7 | 35.2 | 8.25 |  |  |  |  |  |  | 
C[C@]12CC[C@@H]3c4ccc(O)cc4CC[C@H]3[C@@H]1CC[C@@H]2OC(=O)CCc1ccccc1 | 32.9 | 37.7 | 42.6 | 17.9 | 33.9 | 39.4 | 30.8 | 52.9 | 35.5 | 78.7 | 36.6 | 35.2 |  |  |  |  |  |  | 
Cc1ccc(C2COc3cc(O)c(O)cc3C2)cc1 (stereo not drawn) |  | 114 | 236 |  |  |  | 57.3 | 192 |  | 127 | 172 | 69.6 |  |  |  |  |  |  | 
COc1cc(C(=O)CC2OC(=O)C(Cl)=C2Cl)ccc1Cl (stereo not drawn) | > 100 |  | > 100 |  | > 100 | > 100 | > 100 | > 100 | > 100 | > 100 | > 100 | > 100 |  |  |  |  |  |  | 
O=C(c1ccccc1)C1C(c2ccccc2)N1S(=O)(=O)c1ccccc1 (stereo not drawn) | > 100 | > 100 |  | > 100 | > 100 | > 100 | > 100 | > 100 |  | > 100 | > 100 |  |  |  |  |  |  |  | 
Cc1nc2[nH]ncn2c(=O)c1CCCl | > 10 | > 10 | > 10 | > 10 | > 10 | > 10 | > 10 | > 10 | > 10 |  | > 10 |  |  |  |  |  |  |  | 
N#C/C(=C\c1ccc(Br)cc1)n1nnc2cc(Cl)c(Cl)cc21 |  | > 100 |  |  | 6.71 | 3.3 | 4.86 | > 100 | 3.24 | > 100 |  |  | 1.51 | 3.32 | 1.71 | 2.08 | 3.1 | 1.73 | 2.92
CCC(C)C1NC(=O)C2CCCN2C(=O)C(CC(C)C)OC(=O)CCNC(=O)C(C)N(C)C(=O)C(C(C)C)N(C)C1=O (stereo not drawn) (cyclo([ξLac(3-iPr)]PI[NMeV][NMeA][βAla]); configuration not given here) | 60.2 | > 26.7 | > 100 | > 96.3 | > 100 |  | 8.81 | > 100 | > 83.4 | 45.5 | 14.9 | 41.8 |  |  |  |  |  |  | 
O=C(c1ccccc1)c1nc2ccc(Cl)cc2c2c1CCCO2 | > 100 |  | > 100 |  | > 100 | > 100 | > 100 |  | > 100 | > 100 | > 100 |  |  |  |  |  |  |  | 
